Source: ChEMBL document CHEMBL4823282, “Novel Broad-Spectrum Antimicrobial Peptide Derived from Anoplin and Its Activity on Bacterial Pneumonia in Mice” (J Med Chem, 2021)
Activity calls are given as the source filed them. The calls are words filed in the database; no cut-off is given here. Where a SMILES comes first, the peptide text is derived from it. Bridges are numbered along the chain shown (N, C = ends). [ ]: non-standard residue; d: D form. The star is where a group is joined. X1 = CC[C@H](C)CCCCC(=O)*; Dab = NCC[C@H](N)C(=O)O

Columns and labels:
Cell membrane [1] = experiment: Induction of outer membrane permeabilization in Klebsiella pneumoniae ATCC 700603 at 2 to 4 MIC by N-phenylnaphthylamine dye based fluorescent method; type: subcellular; settings: Klebsiella pneumoniae 700603, 2 to 4 M
Escherichia coli [2] = experiment: Synergistic antibacterial activity against Escherichia coli ATCC 25922 at 2 times MIC incubated for 18 to 24 hrs in presence of 2 times MIC of gentamycin by broth microdilution assay based checkerboard assay; type: functional; settings: time 18-24 hrs
Klebsiella pneumoniae [3] = experiment: Antibacterial activity against Klebsiella pneumoniae ATCC 700603 infected in BALB/C mouse assessed as reduction in bacterial load at 5 to 10 mg/kg, ip by hematoxylin and eosin staining based assay; type: functional, organism-based; settings: dose 5-10 mg/kg
Klebsiella pneumoniae [4] = experiment: Antibacterial activity against Klebsiella pneumoniae ATCC 700603 infected in BALB/C mouse assessed as alveolar expansion at 5 mg/kg, ip by hematoxylin and eosin staining based assay; type: functional, organism-based
Staphylococcus aureus [5] = experiment: Drug localization in surface of Staphylococcus aureus ATCC 25923 at 2 times MIC incubated for 30 mins using ACD-labeled compound by PI-staining based laser scanning confocal microscopic analysis; type: functional, organism-based
[6] = Stability in BALB/C mouse serum measured up to 1440 mins by HPLC analysis; type: ADME, cell-free
[7] = Induction of glomerulus hemorrhage in BALB/C mouse at 82 mg/kg, ip administered as single dose by hematoxylin and eosin staining based assay; type: organism-based; settings: in vivo
Klebsiella pneumoniae [8] = experiment: Disruption of membrane integrity in Klebsiella pneumoniae ATCC 700603 assessed as membrane blebbing at 1 times MIC incubated for 0.5 to 2 hrs by scanning electron microscopy; type: functional, organism-based; settings: time 0.5-2 hrs
Lipopolysaccharide (LPS) = experiment: Binding affinity to LPS (unknown origin) assessed as bacterial killing at 2 times MIC preincubated for 1 hr followed by Escherichia coli ATCC 25922 addition and measured after 2 hrs by absorbance method relative to polymyxin B; settings: time 3.0 hrs
[9] = Toxicity in BALB/C mouse assessed as induction of tissue hemorrhage at 19 mg/kg, ip administered as single dose by hematoxylin and eosin staining based assay; type: organism-based; settings: in vivo
Staphylococcus aureus [10] = experiment: Disruption of membrane integrity in Staphylococcus aureus ATCC 25923 assessed as membrane creeping at 1 times MIC incubated for 0.5 to 2 hrs by scanning electron microscopy; type: functional, organism-based; settings: time 0.5-2 hrs
Staphylococcus aureus [11] = experiment: Bactericidal activity against Staphylococcus aureus ATCC 25923 at 2MIC measured within 3 hrs by time-kill assay relative to control; type: functional
Klebsiella pneumoniae [12] = experiment: Antibacterial activity against Klebsiella pneumoniae ATCC 700603 infected in BALB/C mouse assessed as reduction in bacterial load in lung at 10 mg/kg, ip measured within 24 hrs by agar plate counting method (reference value: 2.77 x 10^7 CFU/mg); type: functional
HK-2 = experiment: Cytotoxicity against human HK2 cells incubated for 12 hrs by MTT assay; type: cell-based; settings: HK-2, 12 h
Pseudomonas aeruginosa = experiment: Synergistic antibacterial activity against Pseudomonas aeruginosa ATCC 27853 at 2 times MIC incubated for 18 to 24 hrs in presence of 2 times MIC of polymyxin B by broth microdilution assay based checkerboard assay; type: functional; settings: time 18-24 hrs
Klebsiella pneumoniae [13] = experiment: Antibacterial activity against Klebsiella pneumoniae ATCC 700603 incubated with 0.2 to 0.02 ug/ml trypsin for 6 hrs followed by bacterial addition and measured after 18 hrs by CLSI based broth dilution method; type: functional, organism-based; settings: dose 0.2-0.02 µg/ml, time 23.0 hrs
Staphylococcus aureus [14] = experiment: Antibacterial activity against Staphylococcus aureus ATCC 25923 incubated with 0.2 to 0.02 ug/ml chymotrypsin for 6 hrs followed by bacterial addition and measured after 18 hrs by CLSI based broth dilution method; type: functional, organism-based; settings: dose 0.2-0.02 µg/ml
[15] = Induction of renal interstitial cell hemorrhage in BALB/C mouse at 82 mg/kg, ip administered as single dose by hematoxylin and eosin staining based assay; type: organism-based; settings: in vivo
[16] = Induction of inflammation in BALB/C mouse at 82 mg/kg, ip administered as single dose by hematoxylin and eosin staining based assay; type: organism-based; settings: in vivo
A549 = experiment: Cytotoxicity against human A549 cells incubated for 12 hrs by MTT assay; type: cell-based; settings: A549, 12 h
[17] = Induction of nephrotoxicity in BALB/C mouse at 82 mg/kg, ip administered as single dose by hematoxylin and eosin staining based assay; type: organism-based; settings: in vivo
[18] = Toxicity in BALB/C mouse assessed as effect on heart at 19 mg/kg, ip administered as single dose by hematoxylin and eosin staining based assay; type: organism-based; settings: in vivo
[19] = Toxicity in BALB/C mouse assessed as effect on kidney at 19 mg/kg, ip administered as single dose by hematoxylin and eosin staining based assay; type: organism-based; settings: in vivo
Klebsiella pneumoniae [20] = experiment: Disruption of membrane integrity in Klebsiella pneumoniae ATCC 700603 assessed as membrane creeping at 1 times MIC incubated for 0.5 to 2 hrs by scanning electron microscopy; type: functional, organism-based; settings: time 0.5-2 hrs
Klebsiella pneumoniae [21] = experiment: Synergistic antibacterial activity against Klebsiella pneumoniae ATCC 700603 at 2 times MIC incubated for 18 to 24 hrs in presence of 2 times MIC of polymyxin B by broth microdilution assay based checkerboard assay; type: functional; settings: time 18-24 hrs
Klebsiella pneumoniae [22] = experiment: Antibacterial activity against Klebsiella pneumoniae ATCC 700603 infected in BALB/C mouse assessed as reduction in inflammatory response at 5 to 10 mg/kg, ip by hematoxylin and eosin staining based assay; type: functional, organism-based; settings: dose 5-10 mg/kg
[23] = Stability in BALB/C mouse serum assessed as compound degradation time measured up to 1440 mins by HPLC analysis; type: ADME, cell-free; settings: 24 h
Cell membrane [24] = experiment: Induction of outer membrane permeabilization in Klebsiella pneumoniae ATCC 700603 measured within 1 mins by N-phenylnaphthylamine dye based fluorescent method; type: subcellular; settings: Klebsiella pneumoniae 700603
Klebsiella pneumoniae [25] = experiment: Antibiofilm activity against Klebsiella pneumoniae ATCC 700603 at 2 to 4 times MIC incubated for 24 hrs by crystal violet staining based assay; type: functional, organism-based
Escherichia coli [26] = experiment: Antibiofilm activity against Escherichia coli ATCC 25922 at 4 times MIC incubated for 24 hrs by crystal violet staining based assay; type: functional, organism-based
Klebsiella pneumoniae [27] = experiment: Antibacterial activity against Klebsiella pneumoniae ATCC 700603 infected in BALB/C mouse assessed as reduction in inflammatory cell infiltration in […] at 5 mg/kg, ip by hematoxylin and eosin staining based assay; type: functional, organism-based
Klebsiella pneumoniae [28] = experiment: Reduction in inflammatory cell infiltration in lung of BALB/C mouse infected with Klebsiella pneumoniae ATCC 700603 at 5 mg/kg, ip by hematoxylin and eosin staining based assay; type: functional, organism-based
Klebsiella pneumoniae [29] = experiment: Antibacterial activity against Klebsiella pneumoniae ATCC 700603 incubated with 2000 ug/ml chymotrypsin for 6 hrs followed by bacterial addition and measured after 18 hrs by CLSI based broth dilution method; type: functional, organism-based; settings: dose 2000.0 µg/ml, time 23.0 hrs
[30] = Toxicity in BALB/C mouse infected with Klebsiella pneumoniae ATCC 700603 assessed as change in liver color at 5 mg/kg, ip by hematoxylin and eosin staining based assay; type: organism-based; settings: in vivo
Klebsiella pneumoniae [31] = experiment: Antibacterial activity against Klebsiella pneumoniae ATCC 700603 infected in BALB/C mouse assessed as reduction in alveolar shrinkage at 5 mg/kg, ip by hematoxylin and eosin staining based assay; type: functional, organism-based

## NCCCC[C@H](NC(=O)[C@H](CCCCN)NC(=O)[C@H](Cc1c[nH]c2ccccc12)NC(=O)[C@H](CCCCN)NC(=O)[C@H](CCCCN)NC(=O)[C@H](Cc1c[nH]c2ccccc12)NC(=O)[C@H](Cc1c[nH]c2ccccc12)NC(=O)[C@@H](N)CCCCN)C(=O)N[C@@H](Cc1c[nH]c2ccccc12)C(=O)N[C@@H](Cc1c[nH]c2ccccc12)C(N)=O (H-KWWKKWKKWW-NH2)
Cell membrane [1]
  Activity: Active
Escherichia coli [2]
  FIC: 0.5625
Klebsiella pneumoniae [3]
  Activity: Active
Klebsiella pneumoniae [4]
  Activity: Active
Staphylococcus aureus [5]
  Activity: Active
[6]
  half-life: 50.1 min
[7]
  Activity: Toxic
Klebsiella pneumoniae [8]
  Activity: Active
Lipopolysaccharide (LPS)
  fold change (FC): 2
[9]
  Activity: Toxic
Staphylococcus aureus [10]
  Activity: Active
Staphylococcus aureus [11]
  Activity: 100%
Klebsiella pneumoniae [12]
  Activity: 3.26 10^3CFU/mg
HK-2
  IC50: 63.5 µM
Pseudomonas aeruginosa
  FIC: 0.5625
Klebsiella pneumoniae [13]
  Activity: Active
Staphylococcus aureus [14]
  Activity: inactive
[15]
  Activity: Toxic
[16]
  Activity: Toxic
A549
  IC50: 87.5 µM
[17]
  Activity: Toxic
[18]
  Activity: Toxic
[19]
  Activity: Toxic
Klebsiella pneumoniae [20]
  Activity: Active
Klebsiella pneumoniae [21]
  FIC: 0.3125
Klebsiella pneumoniae [22]
  Activity: Active
[23]
  Time: 11.84 min
Cell membrane [24]
  Activity: Dose-Dependent Effect

## CC[C@H](C)CCCCC(=O)N[C@@H](CCN)C(=O)N[C@H](C(=O)N[C@@H](CCN)C(=O)N[C@H]1CCNC(=O)[C@H]([C@@H](C)O)NC(=O)[C@H](CCN)NC(=O)[C@H](CCN)NC(=O)[C@H](CC(C)C)NC(=O)[C@@H](Cc2ccccc2)NC(=O)[C@H](CCN)NC1=O)[C@@H](C)O (X1-[Dab]T[Dab][Dab][Dab][dF]L[Dab][Dab]T; lactam 4-C)
Klebsiella pneumoniae [25]
  Activity: Active
Escherichia coli [26]
  Activity: Active
Klebsiella pneumoniae [27]
  Activity: inactive
Klebsiella pneumoniae [28]
  Activity: inactive
Klebsiella pneumoniae [29]
  Activity: Active
[30]
  Activity: Toxic
Klebsiella pneumoniae [31]
  Activity: inactive
